{"source": "patent US20210145801A1", "about": "“THERAPY FOR PROTEIN MISFOLDING DISEASE” (WREN THERAPEUTICS LIMITED, priority 2018, published 2021)", "key": {"[1]": {"assay": "Pharmacokinetic study, single oral dose", "format": "in vivo, male, Swiss Albino mice", "settings": "11.5 mg/kg p.o.; for concentration at 6 h: oral", "experimental": "The pharmacokinetic profile was assessed in male, Swiss Albino mice in a discrete study using a single per oral dose of Netoglitazone (11.5 mg/kg, 30 μmoles/kg) formulated as a solution in 10% NMP/90% Solutol (as a 20% v/v solution in PBS). The dosing concentration was 2.3 mg/mL with a dosing volume of 5.0 mL/kg. Data were derived from the average of 3 animals per timepoint (terminal sampling). Plasma samples were collected at 0.25, 0.50, 1.0, 2.0, 4.0, 6.0, 8.0 and 24 hours by protein precipitation method with acetonitrile. Brain samples were collected at 6.0 and 24 hours by brain homogenisation and protein precipitation method with acetonitrile. Cerebrospinal fluid (CSF) samples were collected at 6.0 and 24 hours by protein precipitation method with acetonitrile. Samples were analysed using UHPLC with TOF mass spectrometry using electrospray ionisation."}, "[2]": {"target": "T1, Aβ plaques in AD worms (GMC101) (Homo sapiens, UniProt P05067)", "T1 construct": "unc-54p::A-beta-1-42 expresses full-length human Aβ42 peptide in body wall muscle cells; expressed in transfected cells; host or cells: C. elegans strain GMC101 (dvIs100), body wall muscle cells", "T1 sequence (P05067 672-713 limits assumed)": "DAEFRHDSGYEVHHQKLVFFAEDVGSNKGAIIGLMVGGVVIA", "assay": "NIAD-4 staining of plaques load in living AD worms", "format": "in vivo, C. elegans", "experimental": "GMC101 dvIs100 [unc-54p::A-beta-1-42::unc-54 3′UTR+mtl-2p::GFP]. mtl-2p::GFP produces constitutive expression of GFP in intestinal cells. unc-54p::A-beta-1-42 expresses full-length human Aβ42 peptide in body wall muscle cells that aggregates in vivo. Shifting L4 or young adult animals from 20° to 24° C. causes paralysis (G. McColl et al., Utility of an improved model of amyloid-beta (Aβ1-42) toxicity in Caenorhabditis elegans for drug screening for Alzheimer's disease. Mol Neurodegener. 7, 57 (2012));\nBriefly, Netoglitazone stocks (5 mM in 100% DMSO) were used at an appropriate concentration to seed 9-cm NGM plates. Plates were then placed in a laminar flow hood at room temperature (22° C.) for up to 4 hours to dry. […]\nPlaques staining was carried out as previously described (J. Habchi et al. (2016); M. Perni et al., A natural product inhibits the initiation of α-synuclein aggregation & suppresses its toxicity. Proc. Natl. Acad. Sci. U.S.A. 114, E1009-E1017 (2017)). […] Images were captured with a Zeiss Axio Observer D1 fluorescence microscope (Carl Zeiss Microscopy GmbH) with a 20× objective and a 49004 ET-CY3/TRITC filter (Chroma Technology Corp). Fluorescence intensity was calculated using ImageJ software (National Institutes of Health) and then normalized as the corrected total cell fluorescence. […] Statistical significance was determined using t tests."}, "[3]": {"system": "Aβ1-42Neur worms (CL2355)", "assay": "Automated motility assay in Aβ1-42Neur worms", "format": "in vivo, C. elegans", "settings": "vs untreated worms", "experimental": "Briefly, Netoglitazone stocks (5 mM in 100% DMSO) were used at an appropriate concentration to seed 9-cm NGM plates. Plates were then placed in a laminar flow hood at room temperature (22° C.) for up to 4 hours to dry. C. elegans cultures were then transferred onto media seeded with compound as L4 stage or Day 3 for late treatments and incubated at 24° for the whole experiment. Experiments were carried out at different Netoglitazone concentrations ranging from 0.05 to 500 μM in 1% DMSO. As controls, plates seeded only with 1% DMSO were used.\nAll C. elegans populations were cultured at 20° C. and developmentally synchronized from a 4 h egg-lay. At 64-72 h post-egg-lay (time zero), individuals were transferred to FUDR plates, and body movements were assessed over the times indicated. At different ages, the animals were washed off the plates with M9 buffer and spread over an OP-50 unseeded 9 cm plate, after which their movements were recorded at 20 fps using a recently developed microscopic procedure (M. Perni et al., Massively parallel C. elegans tracking provides multi-dimensional fingerprints for phenotypic discovery. J. Neurosci. Methods. 306, 57-67 (2018)) for 1 min. Up to 600 animals were counted in each experiment in duplicate unless stated otherwise. […]"}, "[4]": {"system": "ROS production in AD worms", "assay": "ROS production (ROS-Glo H2O2 assay) in AD worms", "format": "in vivo, C. elegans", "settings": "5 μM administered at L4; D5 of adulthood", "experimental": "ROS-Glo™ H2O2 cell kit assay was used (Promega, Fitchburg, Wis., USA) and adapted for C. elegans studies. The ROS-Glo™ H2O2 Assay is a bioluminescent assay that measures the level of H2O2, a reactive oxygen species (ROS), directly in cell culture or tissue or in defined enzyme reactions. A derivatized luciferin substrate is incubated with sample and reacts directly with H2O2 to generate a luciferin precursor. Worms treated with 5 μM Netoglitazone in 1% DMSO or 1% DMSO only were washed using M9 buffer out the NGM plates. The buffer was then changed 3 times to remove the excess bacteria. Worm pellets were then divided in three wells and 80 μl of worm pellet (around 200 worms/well) was incubated for 6 h at RT with 20 μl of a ROS Substrate Solution (Promega, Fitchburg, Wis., USA); mild shaking at 300 rpm was used to avoid worm sedimentation; afterwards, worms were incubated for ca. 20 min with 100 μl of the detection solution; luminescence was then measured with a Clariostar (BMG Labtech, Aylesbury, UK)."}, "[5]": {"settings": "male, Swiss Albino, mouse, plasma, po, single dose"}}, "note": "“Also recorded” adds a separate entry of the source. Like-named read-outs stand apart in the source and are kept apart here.", "data": [{"molecule": "O=C1NC(=O)C(Cc2ccc3cc(OCc4ccccc4F)ccc3c2)S1", "note": "(stereo not drawn) [Netoglitazone]", "values": [{"measurement": "Brain penetration across the blood brain barrier", "setting": "[1]", "result": "good brain penetration across the blood brain barrier"}, {"measurement": "concentration at 6 h", "setting": "[1]; male, Swiss Albino, mouse, CSF, read-out: CSF levels", "result": 50, "unit": "ng/mL"}, {"measurement": "concentration at 6 h", "setting": "[1]; male, Swiss Albino, mouse, brain homogenate, read-out: Total brain levels", "result": 8540, "unit": "ng/g"}, {"measurement": "Cmax", "setting": "[1]; [5]", "result": 14400, "unit": "ng/mL"}, {"measurement": "Tmax", "setting": "[1]; [5]", "result": 6, "unit": "h"}, {"measurement": "Plaques load in AD worms (NIAD-4 fluorescence)", "setting": "[2]; 0.5 μM administered at L4, day 6 of adulthood", "result": "significantly decrease the plaques load; also recorded: Decrease in the plaques load in AD worms"}, {"measurement": "Plaques load in AD worms after late administration", "setting": "[2]; administered at D3 of adulthood, read at D6", "result": "significant decrease of the plaques load at D6; also recorded: decreases the plaques load at D6 of adulthood"}, {"measurement": "Motility of Aβ1-42Neur worms", "setting": "[3]", "result": "significantly improves the (A) chemotaxis index and (B) motility"}, {"measurement": "ROS production / levels of oxidative species in AD worms", "setting": "[4]", "result": "significantly decreased the levels of oxidative species; also recorded: restores the ROS production in AD worms to normal levels"}]}]}
